Reference: a compilation of properties of binary mixtures (doi:10.1016/j.molliq.2017.03.027)

Assay: xn = mol fraction of the nth substance listed
Settings: 100 kPa

CO + CCCC[n+]1ccn(C)c1.O=S(=O)([N-]S(=O)(=O)C(F)(F)F)C(F)(F)F
x1 = 1
Settings	speed of sound [m/s]	viscosity [mPa·s]
298.15 K	1103.3	0.55
303.15 K	1086.9	0.51
308.15 K	1070.6	0.48
313.15 K	1054.5	0.45
318.15 K	1038.5	0.42
323.15 K	1022.5	0.41

CS(C)=O + CCCC[n+]1ccn(C)c1.O=S(=O)([N-]S(=O)(=O)C(F)(F)F)C(F)(F)F
Settings	speed of sound [m/s]	viscosity [mPa·s]
298.15 K, x1 = 0.0951	1232.7	40.36
298.15 K, x1 = 0.2074	1239.8	33.72
298.15 K, x1 = 0.2885	1246	28.98
298.15 K, x1 = 0.4003	1257.9	22.18
298.15 K, x1 = 0.5026	1269.8	17.18
298.15 K, x1 = 0.7066	1299.3	8.91
298.15 K, x1 = 0.8039	1329	5.97
298.15 K, x1 = 0.9012	1384.8	3.51
298.15 K, x1 = 1	1490.5	2.03
303.15 K, x1 = 0.0951	1221.2	32.94
303.15 K, x1 = 0.2074	1228.1	27.62
303.15 K, x1 = 0.4003	1245.8	18.3
303.15 K, x1 = 0.5903	1267.6	11.04
303.15 K, x1 = 0.7066	1286.2	8.01
303.15 K, x1 = 0.8039	1315.2	5.17
303.15 K, x1 = 0.9012	1369.9	3.15
303.15 K, x1 = 1	1473.6	1.84
308.15 K, x1 = 0.0951	1209.8	26.98
308.15 K, x1 = 0.2074	1216.8	22.9
308.15 K, x1 = 0.2885	1222.7	19.59
308.15 K, x1 = 0.4003	1233.9	15.42
308.15 K, x1 = 0.5026	1245.1	11.71
308.15 K, x1 = 0.7066	1273.2	6.73
308.15 K, x1 = 0.8039	1301.4	4.62
308.15 K, x1 = 0.9012	1355	2.84
313.15 K, x1 = 0.2885	1211.1	17.04
313.15 K, x1 = 0.4003	1221.8	13.35
313.15 K, x1 = 0.5026	1232.9	10.62
313.15 K, x1 = 0.7066	1260.2	5.96
313.15 K, x1 = 0.8039	1287.7	4.17
313.15 K, x1 = 0.9012	1340.2	2.57
318.15 K, x1 = 0.0951	1187.5	19.53
318.15 K, x1 = 0.2074	1194.2	16.67
318.15 K, x1 = 0.2885	1199.7	14.57
318.15 K, x1 = 0.4003	1210.1	11.47
318.15 K, x1 = 0.5026	1220.8	8.84
318.15 K, x1 = 0.5903	1229.8	7.4
318.15 K, x1 = 0.7066	1247.2	5.63
318.15 K, x1 = 0.8039	1274.4	3.71
318.15 K, x1 = 0.9012	1325.4	2.33
318.15 K, x1 = 1	1423.3	1.41
323.15 K, x1 = 0.0951	1176.3	16.81
323.15 K, x1 = 0.2074	1182.9	14.37
323.15 K, x1 = 0.2885	1188.1	12.56
323.15 K, x1 = 0.4003	1198.2	9.96
323.15 K, x1 = 0.5026	1208.5	7.69
323.15 K, x1 = 0.5903	1217.3	6.39
323.15 K, x1 = 0.7066	1233.9	5.01
323.15 K, x1 = 0.8039	1260.4	3.32
323.15 K, x1 = 1	1406.7	1.3
